16 molecules from patent publication US7208517B1, “Endothelin antagonists” (Abbott Labortories, priority 1994, dated 2007) can be followed below.

As a reminder, the inhibition is the share of the control response that was lost under treatment. A word on the IC50: it is the concentration that gives 50% inhibition.

The target in one data set is T1, ETA Receptor (Rattus norvegicus, UniProt P26684).
T1 construct: endogenous in cells; host or cells: MMQ rat pituitary cells (membranes)
T1 sequence (P26684 21-426): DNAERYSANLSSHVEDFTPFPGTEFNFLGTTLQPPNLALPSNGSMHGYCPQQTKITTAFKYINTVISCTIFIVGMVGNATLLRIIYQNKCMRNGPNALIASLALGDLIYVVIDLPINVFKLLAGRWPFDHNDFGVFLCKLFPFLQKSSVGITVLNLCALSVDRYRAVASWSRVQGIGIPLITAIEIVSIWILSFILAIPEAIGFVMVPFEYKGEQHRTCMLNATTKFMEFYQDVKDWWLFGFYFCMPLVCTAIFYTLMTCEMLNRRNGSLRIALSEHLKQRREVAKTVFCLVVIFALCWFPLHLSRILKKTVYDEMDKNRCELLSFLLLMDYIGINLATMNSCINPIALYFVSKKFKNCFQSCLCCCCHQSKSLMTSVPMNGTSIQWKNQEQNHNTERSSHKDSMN
In words: [125I]ET-1 binding to membranes from MMQ cells (ETA receptor binding assay, Table 4). The settings on record: test compound at 1 μM; 0.1 nM [125I]ET-1, MMQ cell membranes, 4 hours at 25° C.; read-out: % Inhibition of ETA at 1 μM.

Data set [1] addresses T2, ETA receptor in MMQ cells (rET-A) (Rattus norvegicus, UniProt P26684).
T2 construct: endogenous in cells; host or cells: MMQ rat pituitary cells (membranes)
T2 sequence (P26684 21-426): T1 sequence (P26684 21-426)
The data set is described as follows: ETA/ETB selectivity: (125I)ET-1 competition binding, ETA assay in MMQ cell membranes (rET-A). Conditions: MMQ cell membranes; 0.1 nM (125I)ET-1; read-out: rET-A IC50.

Data set [2] can be described thus: Determination of plasma protein binding (ultrafiltration, HPLC). It counts as in vitro ADME. On the set-up: fraction unbound at 1 h: dose or concentration left out as unconfirmed. The settings on record: fresh plasma, 1 hour at room temperature, read-out: percent of bound compound (plasma protein binding, % PB) (converted). The protocol: A stock solution of the test compound in 50% ethanol (2 mg/mL) was diluted 10× into PBS. A 0.4 mL sample of this secondary stock solution was added to 3.6 mL of fresh plasma, and incubated at room temperature for 1 hour. A 1 mL sample of this incubation mixture was transferred to a Centrifree ultrafiltration tube. The sample was centrifuged in a fixed-bucket rotor for approximately 2 min and the filtrate was discarded. The sample was centrifuged for another 15–30 min. A 100 μL sample of the ultrafiltrate was transfered to a micro HPLC sample vial containing […] of HPLC mobile phase and mixed thoroughly. A 50 μL sample was injected and the concentration of drug in the ultrafiltrate was determined by HPLC analysis compared against a standard sample prepared identically in the absence of plasma. Ultrafiltrate concentrations are calculated from a calibration curve. Protein binding is calculated according to the equation: % PB=[1−(Cu/Ci)]*100%
where Cu is the ultrafiltrate concentration and Ci is the initial plasma concentration.

For data set [3], the system named is male subjects with hormone refractory prostate cancer. In words: Interleukin-6 levels in serum of treated subjects. It counts as in vivo, human. Conditions: subjects treated versus placebo. The protocol:
(§1) Studies were performed on male subjects with asymptomatic hormone refractory prostate cancer with rising PSA levels and on male subjects with symptomatic hormone refractory prostate cancer with rising PSA levels and pain. Subjects in the phase II studies had castrate levels of testosterone, either due to pharmacologic intervention, via leuprolide (Lupron®) or goserelin (Zoladex®), or via surgical castration. Subjects received ABT-627 or placebo. The following tests were conducted:
(§2) ABT-627 was formulated in 2.5 and 10 mg doses. An oral liquid formulation of ABT-627 was also prepared as follows: 1 mg/ml ABT-627, 50% glycerin, 14% alcohol, and water. Matching placebos were also provided.
The effect of ABT-627 adminstration on Interleukin-6 levels in human serum samples was determined at Quintiles Laboratories using a sandwich immunoassay. Human serum samples and standards were incubated in microtiter plate wells coated with a monoclonal anti-IL-6 antibody, in the presence of a second monoclonal anti IL-6 antibody, linked to acetylcholinesterase. After incubation, the wells were washed, and the bound enzymatic activity was measured using a chromogenic substrate. The intensity of the color was proportional to the concentration of IL-6 in the sample or standard.

Data set [4] shares this test system. The data set is described as follows: Chromagranin-A levels in serum of treated subjects. In kind it is in vivo, human. Conditions: 2.5 mg/day. The protocol: as §1, §2
The effect of ABT-627 adminstration on Chromagranin-A levels in human serum samples was determined by proprietary assay conducted at the Nichols Institute. The procedure is a two site chemiluminescence assay (ICMA) using one monoclonal antibody conjugated with biotin, another monoclonal antibody labeled with an acridinium ester, and an avidin-coated solid phase. The antibody/Chromagranin-A/antibody complex is bound to the solid phase by the avidin-biotin interaction and unbound materials are removed by washing. The bound, acridinium-labeled material produces light that is detected in a luminometer after addition of triggering agents. The Limit of Detection (LOD) for the assay was 0.07 ng/mL.

As to `CCCCN(CCCC)C(=O)CN1C[C@H](c2ccc3c(c2)CCO3)[C@@H](C(=O)O)[C@@H]1CC(C)(C)CCC` [compound 515], the inhibition at 1 µM at ETA Receptor was 99.1%. Further, the IC50 in data set [1] came out at 1.6 nM.

On to `CCCCN(CCCC)C(=O)CN1CC(c2ccc3c(c2)OCO3)C(C(=O)O)C1CC(C)(C)CCC` (stereo not drawn) [compound 503], for which the inhibition at 1 µM on ETA Receptor is 97%. For the same molecule, in data set [1], the concentration for half-maximal inhibition (IC50) turned out to be 1.4 nM.

In the case of `CCCCN(CCCC)C(=O)CN1CC(c2cc(OC)c3c(c2)OCO3)C(C(=O)O)C1CC(C)(C)C1OCCO1` (stereo not drawn) [compound 516], on ETA Receptor, the inhibition at 1 µM was found to be 99.7%. The 50% inhibitory concentration (IC50) in data set [1] worked out at 0.71 nM.

Regarding `CCCCN(CCCC)C(=O)CN1CC(c2ccc3c(c2)OCO3)C(C(=O)O)C1CCC1CCCCO1` (stereo not drawn) [compound 505], the inhibition at 1 µM at ETA Receptor stood at 95.8%. In addition, in data set [1], the IC50 turned out to be 2 nM.

`CCCCN(C(=O)CN1CC(c2ccc3c(c2)OCO3)C(C(=O)O)C1c1ccc(OC)cc1)c1cccnc1` (stereo not drawn) [compound 531]: on ETA Receptor, the inhibition at 1 µM was found to be 99.8%. Also, the fraction unbound at 1 h in data set [2] is 0.08. In addition, in data set [1], the IC50 came to 1.2 nM.

On to `CCCCN(CCCC)C(=O)CN1CC(c2ccc3c(c2)OCO3)C(C(=O)O)C1CCC1OCCO1` (stereo not drawn) [compound 504], for which, at ETA Receptor, the inhibition at 1 µM stood at 97.1%. Besides, the IC50 in data set [1] amounted to 3.1 nM.

`CCCCN(CCCC)C(=O)CN1CC(c2ccc3c(c2)OCO3)C(C(=O)O)C1CC(C)(C)C1OCCO1` (stereo not drawn) [compound 507]: the inhibition at 1 µM on ETA Receptor came to 99.3%. Besides, the IC50 in data set [1] was determined as 3 nM.

For `CCCON(CCC)C(=O)CN1CC(c2ccc3c(c2)OCO3)C(C(=O)O)C1c1ccc(OC)cc1` (stereo not drawn) [compound 524], at ETA Receptor, the inhibition at 1 µM amounted to 99.2%. Further, in data set [1], the IC50 is 0.79 nM.

`CCCCN(CCCC)C(=O)CN1CC(c2ccc3c(c2)OCO3)C(C(=O)O)C1CCc1ccccc1OC` (stereo not drawn) [compound 517]: on ETA Receptor, the inhibition at 1 µM worked out at 94.1%. In data set [1], the IC50 came out at 1 nM.

On to `CCCCN(CCCC)C(=O)CN1CC(c2ccc3c(c2)OCO3)C(C(=O)O)C1CC(C)(C)C=C(C)C` (stereo not drawn) [compound 506], for which the inhibition at 1 µM on ETA Receptor stood at 99.7%. Besides, the IC50 in data set [1] is 3.2 nM.

Consider `CCCCCN(CCCC)C(=O)CN1C[C@H](c2ccc3c(c2)OCO3)[C@@H](C(=O)O)[C@@H]1c1ccc(OC)cc1` [ABT-627], for which the “average change in baseline for Interleukin-6 (AUC, FIG. 1)” value in data set [3] is on record as “the average change in baseline for Interleukin-6 was lower”. In addition, the “average change from baseline for Chromagranin-A (AUC, FIG. 8)” value in data set [4] is listed as “the average change from baseline for Chromagranin-A was higher”.

Take `CCCCN(CCCO)C(=O)CN1CC(c2ccc3c(c2)OCO3)C(C(=O)O)C1c1ccc(OC)cc1` (stereo not drawn) [compound 523]: the inhibition at 1 µM on ETA Receptor worked out at 99%. Also, the IC50 in data set [1] turned out to be 0.42 nM.

Regarding `CCCCN(CCCC)C(=O)CN1CC(c2ccc3c(c2)OCO3)C(C(=O)O)C1COc1ccccc1OC` (stereo not drawn) [compound 510], the inhibition at 1 µM at ETA Receptor is 100%. The IC50 in data set [1] turned out to be 0.5 nM.

In the case of `CCCC(CCC)N(C(=O)CN1CC(c2cc(OC)c3c(c2)OCO3)C(C(=O)O)C1CCC1OCCO1)c1ccc(F)c(C)c1` (stereo not drawn) [compound 513], the inhibition at 1 µM on ETA Receptor was 98%. For the same molecule, the half-inhibitory concentration (IC50) in data set [1] stood at 0.3 nM.

Turning to `CCCCN(CCCC)C(=O)CN1C[C@H](c2ccc3c(c2)OCO3)[C@@H](C(=O)O)[C@@H]1CC(C)(C)CCC` [compound 537], the inhibition at 1 µM on ETA Receptor came to 97.2%. For the same molecule, the IC50 in data set [1] came to 0.96 nM.

As to `CCCCN(CCCC)C(=O)CN1CC(c2cc(OC)c3c(c2)OCO3)C(C(=O)O)C1CCC1OCCO1` (stereo not drawn) [compound 509], the inhibition at 1 µM on ETA Receptor was 100%. Besides, the half-inhibitory concentration (IC50) in data set [1] stood at 0.56 nM.
